Source: patent US11045480B2, “Anti-huLRRC15 antibody drug conjugates and methods for their use” (AbbVie Inc., priority 2015, dated 2021)

Legend:
[1] = system: NW231 breast cancer xenograft; experiment: NW231 xenograft tumor growth; type: in vivo, mouse; details: NW231, SCID mice; biologics 12 mg/kg IP Q4D×6; doxorubicin 1 mg/kg IV days 0, 4, 8, 13, 18 (FIG. 20D)
Experimental: In FIG. 20D, NW231 breast cancer cells (10 million) were implanted subcutaneously into SCID mice, and mice were randomized when the tumors reached ˜150 mm^3 and dosed with biologics at 12 mg/kg intraperitoneally on a Q4D×6 (one dose given every 4 days for a total of 6 doses), while doxorubicin was dosed intravenously at 1 mg/kg on days 0, 4, 8, 13 and 18.

[2] = system: HN5 (head and neck) xenograft; experiment: HN5 xenograft tumor growth; type: in vivo, mouse; details: HN5, NSG mice; ADC 4.5 mg/kg IP Q4D×6; erlotinib 150 mg/kg orally daily ×10; cetuximab 3 mg/kg IP Q7D×3 (FIG. 20B)
EBC-1 tumors = experiment: Ex vivo analysis (flow cytometry, microscopy, IHC) of treated EBC-1 tumors; type: in vivo, mouse
Experimental: For the experiments, 5 million EBC-1 cells grown in vitro were implanted per mouse into the right flank of SCID-beige mice. Tumors were size-matched at ˜300 mm^3 and treated on day 0 and day 4 with 6 mg/kg intraperitoneally for each biologic drug shown in FIG. 15A. Tumors were harvested from the mice in each group 11 days post randomization and start of treatment. Tumors were dissociated into single cell suspensions using Miltenyi Biotec gentleMACS Dissociator according to the manufacturer's guidelines for the dissociation of tough tumors. Dissociated tumor cells were passed through a 70 μm filter, counted, and immediately used for flow cytometry. Single-cell suspensions were resuspended in PBS with 10% FBS and 10 μg/mL FcR block (anti-mouse CD16/CD32, clone 93, eBioscience, Cat. #16-0161.) The following directly conjugated antibodies were used for flow cytometry: human IgG1 κ isotype control (AB095) AF647, anti-huLRRC15 (hu208.4.1a.1a) AF647, anti-FAP (huFAP MAB5) AF647, mouse anti-human CD326 (EPCAM) PE (clone 1B7, eBioscience, Cat. #12-9326), anti-mouse CD11b PE (clone M1/70, eBioscience, Cat. #12-0112), anti mouse CD11c PE (clone N418, eBioscience, Cat. #12-0114), and anti-mouse F4/80 PE (clone BM9, eBioscience, Cat. #12-4801). Ex vivo EBC1 tumor cell suspensions were incubated with fluor-conjugated antibodies for 20 minutes on ice and washed twice using PBS with 1% FBS. Flow cytometry data were collected using a Becton Dickinson FacsCalibur, and data were analyzed using FlowJo™ analysis software (TreeStar). The ex vivo flow cytometry data (FIGS. 15B-15E) are shown as a percentage of cells gated positive for each antigen relative to total live cells gated via FSC/SCC. It should be noted that percentages reported are relative values to the total ex vivo EBC1 tumor and that a reduction in one cell population (e.g., EPCAM positive cancer cells) would result in an inverse increase in remaining cell populations when this analysis method is used.
Dissociated single-cell suspensions of the ex vivo EBC1 tumors shown in FIG. 15A were seeded at 120,000 live cells into tissue culture microscopy chamber slides. Cells were allowed to sit and incubate for 48 hours, and then fixed in 2% paraformaldehyde for 15 min at 37° C. The cells were washed with PBS and permeabilized using 0.3% Triton-X in PBS at 37° C. for 30 min. Cells were washed with PBS and blocked in 5% BSA for 30 min at 37° C. Cells were incubated with anti-α-SMA (clone 1A4 DAKO, Cat. #36962) and then detected with AlexaFluor AF594 (Life Technologies, Cat. #A21203) secondary antibody (2 μg/mL) for 30 min at 37° C. Subsequently, cells were stained using anti-human EpCAM-AF488 (Cell Signaling Technology, Cat. #5198) and washed 3× in PBS. Finally the slides were removed from the chambers and mounted with a coverslip using ProLong Diamond Anti-Fade with DAPI (Life Technologies, Cat. #36962). Image acquisition was performed using Zeiss Axiovision Software on a Zeiss Axiovert 200M inverted fluorescent microscope. Statistical differences between groups were determined using unpaired T tests in GraphPad Prism™. […] The percentage of pHH3 positive cells decreased with additional dosing and longer time (FIG. 15H) correlating with cancer cell death and tumor shrinkage (FIG. 15A).

[3] = system: SCC-15 head and neck cancer xenograft; experiment: SCC-15 xenograft tumor growth; type: in vivo, mouse; details: for TGD, single agent / TGImax, single agent: SCC-15, SCID mice
Experimental: Radiation is a commonly used cytotoxic therapy in oncology. […] SCC-15 head and neck cancer cells (1 million) were implanted subcutaneously into SCID mice, and mice were randomized when the tumors reached ˜200 mm^3 and dosed with biologics at 12 mg/kg intraperitoneally on a Q4D×6 (one dose given every 4 days for a total of 6 doses), while the radiation was directed at the tumor with a single radiation dose of 15 Gy on day 0.
SCC-15 head and neck cancer cells (1 million) were implanted subcutaneously into SCID mice, and mice were randomized when the tumors reached ˜200 mm^3 and dosed with biologics at 12 mg/kg intraperitoneally on a Q7D×6 (one dose given every 7 days for a total of 6 doses), while carboplatin was dosed intraperitoneally […] at 50 mg/kg Q4D×4 (one dose given every 4 days for a total of 4 doses).

[4] = system: MC-38 mouse colorectal cancer; experiment: MC-38 syngeneic tumor growth; type: in vivo
Experimental: MC-38 mouse colorectal cancer cells (250,000) were implanted subcutaneously into C57BL/6 mice, and mice were randomized when the tumors reached ˜100 mm^3 and dosed with isotype antibodies or ADCs at 12 mg/kg intraperitoneally on a Q4D×6 (one dose given every 4 days for a total of 6 doses), while the anti-PD-1 antibody (“Anti-PD1 mAb”) was dosed intraperitoneally at 2 mg/kg Q4D×6 (one dose given every 4 days for a total of 6 doses).

[5] = system: SCC-15 head and neck cancer xenograft; experiment: SCC-15 xenograft tumor growth; type: in vivo, mouse
[6] = EBC-1 tumors, 6 mg/kg IP day 0 and 4, harvested day 11 (FIG. 15F)
[7] = biologics 12 mg/kg IP Q4D×6 (FIG. 21D)
[8] = biologics 12 mg/kg IP Q7D×6, carboplatin 50 mg/kg IP Q4D×4 (FIG. 21E)
[9] = SCC-15, ADC 12 mg/kg IP Q4D×6 plus single radiation dose of 15 Gy on day 0 (FIG. 21D)
[10] = SCC-15, ADC 12 mg/kg IP Q7D×6 plus carboplatin 50 mg/kg IP Q4D×4 (FIG. 21E)
[11] = SCC-15, SCID mice, ADCs 12 mg/kg IP Q7D×6, cetuximab 3 mg/kg IP Q7D×3 (FIG. 22B)
[12] = SCC-15, ADC 12 mg/kg IP Q7D×6 plus cetuximab 3 mg/kg IP Q7D×3 (FIG. 22B)

Substance: huM25-vcMMAE-E2: huM25 conjugated with maleimidocaproyl val-cit PABA MMAE, preparation enriched in DAR2 by HIC
- TGImax [1]: 89%
- TGD [2]: 194%
- TGImax [2]: 96%
- cancer cells in ex vivo tumor (microscopy count) (EBC-1 tumors; [6]): significant decrease
- fibroblast population in ex vivo tumor (EBC-1 tumors; [6]): continued to persist
- phosphohistone H3 (pHH3) staining, mitotic figures (EBC-1 tumors; EBC-1 tumors, 6 mg/kg, after 72 hours (FIG. 15G)): higher number of mitotic figures
- staining for CD45 and F4/80 (EBC-1 tumors; EBC-1 tumors, day 11 post-treatment, 6 mg/kg, compared with isotype ADC (FIG. 15I)): enhanced staining
- immune infiltrate (CD11c or F4/80 positive cells) (EBC-1 tumors; ex vivo flow cytometry of EBC-1 tumors post treatment (FIGS. 15D-15E)): increase in immune infiltrate
- TGD, single agent [3, 7]: 44%
- TGImax, single agent [3, 7]: 58%
- TGD, single agent [3, 8]: 44%
- TGImax, single agent [3, 8]: 58%
- TGD, used adjunctively with radiation [3, 9]: 219%
- TGImax, used adjunctively with radiation [3, 9]: 90%
- TGD, used adjunctively with carboplatin [3, 10]: 83%
- TGImax, used adjunctively with carboplatin [3, 10]: 86%
- single agent activity ([4]; MC-38, C57BL/6 mice, ADC 12 mg/kg IP Q4D×6 (FIG. 22C)): did not show single agent activity
- TGImax, administered adjunctively with anti-PD-1 antibody ([4]; MC-38, ADC 12 mg/kg IP Q4D×6 plus anti-PD-1 antibody 2 mg/kg IP Q4D×6 (FIG. 22C)): 87%
- TGD, single agent [5, 11]: 44%
- TGImax, single agent [5, 11]: 58%
- TGD, used adjunctively with cetuximab [5, 12]: 125%
- TGImax, used adjunctively with cetuximab [5, 12]: 87%
